Experiment: xn = mol fraction of the nth substance listed
Settings: 100 kPa, Liquid; for speed of sound: Frequency=3 MHz, Sing-around technique in a fixed-path interferometer; for mass density: Vibrating tube method

OCCCO [propan-1,3-diol] + CCO
Settings | mass density, 283.15 K [kg/m3] | mass density, 293.15 K [kg/m3] | mass density, 303.15 K [kg/m3] | mass density, 313.15 K [kg/m3] | speed of sound, 283.15 K [m/s] | speed of sound, 293.15 K [m/s] | speed of sound, 303.15 K [m/s] | speed of sound, 313.15 K [m/s]
x2 = 0 | 1058.85 | 1052.61 | 1046.36 | 1040.07 | 1659.5 | 1636.3 | 1613.6 | 1591.1
x2 = 0.05 | 1049.7 | 1043.39 | 1037.07 | 1030.71 | 1642.4 | 1618.9 | 1595.7 | 1572.9
x2 = 0.1 | 1040.25 | 1033.87 | 1027.48 | 1021.03 | 1623.9 | 1600.1 | 1576.5 | 1553.2
x2 = 0.15 | 1030.34 | 1023.87 | 1017.39 | 1010.85 | 1605.2 | 1580.9 | 1556.8 | 1533.1
x2 = 0.2 | 1020.03 | 1013.44 | 1006.78 | 999.86 | 1585.7 | 1560.9 | 1536.5 | 1511
x2 = 0.2499 | 1009.63 | 1003 | 996.35 | 989.64 | 1565.3 | 1540.2 | 1515.3 | 1490.6
x2 = 0.3004 | 998.62 | 991.91 | 985.17 | 978.36 | 1544.3 | 1518.7 | 1493.3 | 1468.1
x2 = 0.3502 | 987.34 | 980.54 | 973.69 | 966.78 | 1523 | 1496.8 | 1470.9 | 1445.3
x2 = 0.4 | 975.76 | 968.84 | 961.9 | 954.88 | 1501 | 1474.2 | 1447.8 | 1421.7
x2 = 0.4501 | 963.57 | 956.56 | 949.5 | 942.36 | 1478.2 | 1450.8 | 1423.8 | 1397.1
x2 = 0.5004 | 950.95 | 943.82 | 936.66 | 929.42 | 1454.4 | 1426.5 | 1399 | 1371.7
x2 = 0.5501 | 938.39 | 931.16 | 923.88 | 916.52 | 1431.2 | 1402.8 | 1374.6 | 1346.8
x2 = 0.6001 | 924.91 | 917.56 | 910.16 | 902.67 | 1406.4 | 1377.6 | 1348.8 | 1320.4
x2 = 0.65 | 911.17 | 903.69 | 896.16 | 888.54 | 1382.1 | 1352.5 | 1323.2 | 1294.2
x2 = 0.7 | 896.69 | 889.09 | 881.42 | 873.66 | 1356.6 | 1326.3 | 1296.4 | 1266.8
x2 = 0.7503 | 881.71 | 873.96 | 866.15 | 858.23 | 1331.1 | 1300.1 | 1269.4 | 1239.1
x2 = 0.8001 | 866.31 | 858.42 | 850.47 | 842.41 | 1304.9 | 1273.3 | 1242 | 1211.1
x2 = 0.8502 | 850.07 | 842.04 | 833.92 | 825.7 | 1278.5 | 1246.2 | 1214.2 | 1182.7
x2 = 0.9 | 833.71 | 825.51 | 817.24 | 808.85 | 1252.1 | 1219 | 1186.3 | 1154
x2 = 0.95 | 816.56 | 808.22 | 799.79 | 791.23 | 1225.1 | 1191.3 | 1157.9 | 1125

— the NIST ThermoML archive (doi:10.1016/j.tca.2016.09.005)
